Experimental data: ChEMBL document CHEMBL1201862, “PubChem BioAssay data set” (2004)
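Values below derive from 48-hour exposures of cells grown in 96-well plates, with endpoints linearly interpolated between the two concentrations bracketing the appropriate inhibition level. At the GI50, growth is halved.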 Calls of active or inactive are those of the source. Cut-off read from the data, not from the text of the source: active = GI50 up to about 1.1 µM and inactive = higher.

Assays:
Test in all cases: inhibition of tumour cell growth, NCI panel, 48 h
[1] = system: KM12
[2] = system: 786-0
[3] = system: Malme-3M
[4] = system: UACC-62
[5] = system: RPMI-8226
[6] = system: OVCAR-8
[7] = system: HCC 2998
[8] = system: SF-268
[9] = system: SF-295
[10] = system: EKVX
[11] = system: SK-OV-3
[12] = system: SN12C
[13] = system: NCI-H23
[14] = system: UACC-257
[15] = system: M14
[16] = system: SR
[17] = system: SNB-75
[18] = system: DU-145
[19] = system: HL-60
[20] = system: TK-10
[21] = system: K562
[22] = system: T47D
[23] = system: IGROV-1
[24] = system: COLO 205
[25] = system: SK-MEL-28
[26] = system: MCF7
[27] = system: HOP-62
[28] = system: PC-3
[29] = system: CAKI-1
[30] = system: MDA-MB-231
[31] = system: MOLT-4
[32] = system: A549
[33] = system: HT-29
[34] = system: HCT-15
[35] = system: RXF 393
[36] = system: CCRF-CEM
[37] = system: SK-MEL-5
[38] = system: MDA-N
[39] = system: SW-620
[40] = system: OVCAR-5
[41] = system: HOP-92
[42] = system: UO-31
[43] = system: NCI/ADR-RES
[44] = system: NCI-H522
[45] = system: NCI-H460
[46] = system: OVCAR-4
[47] = system: HCT-116
[48] = system: LOX IMVI
[49] = system: SF-539
[50] = system: SNB-19
[51] = system: ACHN
[52] = system: NCI-H226
[53] = system: U-251
[54] = system: MDA-MB-435
[55] = system: Hs-578T
[56] = system: SK-MEL-2

N#Cc1ccc(/N=C(/NCC(=O)O)Nc2cccc3ccccc23)cc1
GI50 [1]: > 10 µM (inactive)
GI50 [2]: > 10 µM (inactive)
GI50 [3]: > 10 µM (inactive)
GI50 [4]: > 10 µM (inactive)
GI50 [5]: > 10 µM (inactive)
GI50 [6]: > 10 µM (inactive)
GI50 [7]: > 10 µM (inactive)
GI50 [8]: > 10 µM (inactive)
GI50 [9]: > 10 µM (inactive)
GI50 [10]: > 10 µM (inactive)
GI50 [11]: > 10 µM (inactive)
GI50 [12]: > 10 µM (inactive)
GI50 [13]: > 10 µM (inactive)
GI50 [14]: > 10 µM (inactive)
GI50 [15]: > 10 µM (inactive)
GI50 [16]: > 10 µM (inactive)
GI50 [17]: > 10 µM (inactive)
GI50 [18]: > 10 µM (inactive)
GI50 [19]: > 10 µM (inactive)
GI50 [20]: > 10 µM (inactive)
GI50 [21]: > 10 µM (inactive)
GI50 [22]: > 10 µM (inactive)
GI50 [23]: > 10 µM (inactive)
GI50 [24]: > 10 µM (inactive)
GI50 [25]: > 10 µM (inactive)
GI50 [26]: > 10 µM (inactive)
GI50 [27]: > 10 µM (inactive)
GI50 [28]: > 10 µM (inactive)
GI50 [29]: > 10 µM (inactive)
GI50 [30]: > 10 µM (inactive)
GI50 [31]: > 10 µM (inactive)
GI50 [32]: > 10 µM (inactive)
GI50 [33]: > 10 µM (inactive)
GI50 [34]: > 10 µM
GI50 [35]: > 10 µM (inactive)
GI50 [36]: > 10 µM (inactive)
GI50 [37]: > 10 µM (inactive)
GI50 [38]: > 10 µM (inactive)
GI50 [39]: > 10 µM (inactive)

O=C(OC1C(Oc2ccccc2COC(=O)C2(O)C=CCCC2=O)OC(CO)C(O)C1O)c1ccccc1 (stereo not drawn)
GI50 [1]: 27.4 µM (inactive)
GI50 [2]: 25.3 µM (inactive)
GI50 [3]: 18 µM (inactive)
GI50 [4]: 40.2 µM (inactive)
GI50 [5]: 13.5 µM (inactive)
GI50 [6]: 36.7 µM (inactive)
GI50 [40]: 91.2 µM (inactive)
GI50 [41]: 0.094 µM (active)
GI50 [8]: 13.2 µM (inactive)
GI50 [11]: 33.9 µM (inactive)
GI50 [12]: 25.9 µM (inactive)
GI50 [13]: 26.4 µM (inactive)
GI50 [14]: 46.5 µM (inactive)
GI50 [15]: 35 µM (inactive)
GI50 [16]: 19.4 µM (inactive)
GI50 [17]: 7.13 µM (inactive)
GI50 [42]: 26.5 µM (inactive)
GI50 [18]: 0.953 µM (active)
GI50 [43]: 34.8 µM (inactive)
GI50 [19]: 23.6 µM (inactive)
GI50 [20]: 31.3 µM (inactive)
GI50 [21]: 34.4 µM (inactive)
GI50 [44]: 17.7 µM (inactive)
GI50 [45]: 22.3 µM (inactive)
GI50 [46]: 41.2 µM (inactive)
GI50 [23]: 25.6 µM (inactive)
GI50 [24]: 23.3 µM (inactive)
GI50 [47]: 45.9 µM (inactive)
GI50 [48]: 23.6 µM (inactive)
GI50 [25]: 68.4 µM (inactive)
GI50 [27]: 42 µM (inactive)
GI50 [28]: 28.4 µM (inactive)
GI50 [29]: 4.11 µM (inactive)
GI50 [30]: 35.5 µM (inactive)
GI50 [31]: 6.03 µM (inactive)
GI50 [32]: 7.05 µM (inactive)
GI50 [33]: 60.4 µM (inactive)
GI50 [34]: 28.2 µM
GI50 [49]: 29.6 µM (inactive)
GI50 [50]: 40.9 µM (inactive)
GI50 [37]: 1.28 µM (inactive)
GI50 [51]: 34.2 µM (inactive)
GI50 [52]: 23.8 µM (inactive)
GI50 [53]: 20.8 µM (inactive)
GI50 [54]: 27.5 µM (inactive)
GI50 [38]: 27 µM (inactive)
GI50 [55]: 13.5 µM (inactive)
GI50 [39]: 24.7 µM (inactive)
GI50 [56]: 65.8 µM (inactive)
